Measurements as given in ChEMBL document CHEMBL4765485, “Convenient Retinoid X Receptor Binding Assay Based on Fluorescence Change of the Antagonist NEt-C343” (J Med Chem, 2021).
Active and inactive are the calls of the source. No cut-off for these calls is given here.

Experiments:
[1] = biological target: T1, Retinoic acid receptor RXR-alpha (Homo sapiens, UniProt P19793); assay: Displacement of [3H]9cis-RA from human RXRalpha-LBD by competitive binding assay
T1 sequence (P19793 whole entry): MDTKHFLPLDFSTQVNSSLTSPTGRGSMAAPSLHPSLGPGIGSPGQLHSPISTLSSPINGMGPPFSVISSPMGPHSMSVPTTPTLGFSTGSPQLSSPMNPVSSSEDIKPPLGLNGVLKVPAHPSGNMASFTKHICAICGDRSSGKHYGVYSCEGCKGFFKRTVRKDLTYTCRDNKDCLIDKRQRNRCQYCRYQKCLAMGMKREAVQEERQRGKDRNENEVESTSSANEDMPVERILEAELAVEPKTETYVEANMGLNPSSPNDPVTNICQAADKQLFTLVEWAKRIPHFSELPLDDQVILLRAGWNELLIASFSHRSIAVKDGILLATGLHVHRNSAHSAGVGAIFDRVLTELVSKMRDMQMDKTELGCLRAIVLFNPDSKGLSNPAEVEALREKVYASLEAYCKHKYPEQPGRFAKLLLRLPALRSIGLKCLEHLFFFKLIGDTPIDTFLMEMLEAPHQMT

[2] = biological target: T1, Retinoic acid receptor RXR-alpha; assay: Antagonist activity at human RXRalpha expressed in COS-7 cells assessed as suppression of NEt-TMN-induced receptor transactivation by luciferase reporter gene assay; type: cell-based; settings: read-out: pA2 (converted)
[3] = biological target: T2, Retinoic acid receptor RXR-alpha (Homo sapiens) (UniProt P19793); assay: Displacement of 6-(Ethyl-{5-isobutoxy-4-isopropyl-2-[(10-oxo-2,3,5,6-tetrahydro-1H,4H,10H-11-oxa-3a-aza-benzo[de]anthracene-9-carbonyl)-amino]-phenyl}-amino)-nicotinic acid from human RXRalpha-LBD by fluorescence binding assay
T2 sequence (whole entry): T1 sequence (P19793 whole entry)

Ki [1] [nM]	Kb [2] [nM]	SMILES	Activity [3]
425	47.9	CCN(c1ccc(C(=O)O)cn1)c1cc(OCC(C)C)c(C(C)C)cc1NC(=O)c1ccccc1	
		CC/C=C\C/C=C\C/C=C\C/C=C\C/C=C\CCCC(=O)O	Active
		CC/C=C\C/C=C\C/C=C\C/C=C\C/C=C\C/C=C\CCC(=O)O	Active
		C=CCc1ccc(O)c(-c2ccc(O)c(CC=C)c2)c1	Active
		CCCCC/C=C\C/C=C\C/C=C\C/C=C\CCCC(=O)O	Active
